Experimental data published in patent publication EP2208725A1, “Novel specific inhibitors of ubiquitin specific protease 7, the pharmaceutical compositions thereof and their therapeutic applications” (Hybrigenics S.A., priority 2009, dated 2010).

Each molecule was assayed against T1, USP5 (Homo sapiens, UniProt P45974) (assay: USP5 activity assay (Ub-AMC)). Conditions: 300 nM Ub-AMC, 300 pM enzyme; compounds tested from 200 µM to 91 nM; unit inferred; read-out: Inhibition of cysteine protease activities: USP 5.
T1 sequence (P45974 1-858): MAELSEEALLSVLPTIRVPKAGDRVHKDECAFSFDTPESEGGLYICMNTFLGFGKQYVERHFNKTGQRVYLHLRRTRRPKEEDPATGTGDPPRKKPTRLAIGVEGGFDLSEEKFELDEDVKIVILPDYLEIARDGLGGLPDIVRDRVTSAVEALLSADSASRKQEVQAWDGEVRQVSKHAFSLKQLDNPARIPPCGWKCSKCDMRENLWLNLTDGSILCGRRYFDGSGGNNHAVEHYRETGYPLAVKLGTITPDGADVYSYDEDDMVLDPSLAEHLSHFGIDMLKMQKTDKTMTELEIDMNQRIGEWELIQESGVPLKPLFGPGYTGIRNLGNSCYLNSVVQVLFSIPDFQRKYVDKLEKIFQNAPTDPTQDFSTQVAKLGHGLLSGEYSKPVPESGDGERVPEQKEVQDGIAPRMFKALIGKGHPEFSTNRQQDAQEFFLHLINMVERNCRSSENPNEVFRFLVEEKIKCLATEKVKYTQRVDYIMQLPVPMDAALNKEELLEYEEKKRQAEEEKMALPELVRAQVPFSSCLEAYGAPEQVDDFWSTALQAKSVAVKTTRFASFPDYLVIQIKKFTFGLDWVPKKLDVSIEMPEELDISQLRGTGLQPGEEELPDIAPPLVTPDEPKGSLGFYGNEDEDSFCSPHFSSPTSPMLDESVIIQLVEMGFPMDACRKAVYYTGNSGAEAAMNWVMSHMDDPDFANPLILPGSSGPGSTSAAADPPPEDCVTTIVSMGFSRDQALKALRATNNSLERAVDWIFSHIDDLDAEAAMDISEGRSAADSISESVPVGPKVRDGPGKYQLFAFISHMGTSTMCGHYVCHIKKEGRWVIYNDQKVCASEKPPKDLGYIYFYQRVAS
Assay type: biochemical
Method: USP5 was diluted in USP buffer (50 mM Tris HCl; 0.5 mM EDTA; 5 mM DTT; 0.01% Triton X-100; Bovine Serum Albumin 0.05 mg.ml^-1 pH 7.6). Compounds stocks (100 mM) were stored at -20°C in DMSO. Compounds were tested at different concentrations: from 200 µM to 91 nM. Reactions were performed as duplicates in Black LJL 96 well plates (HE microplates; Molecular Devices; 20 µl final reaction volume). The substrate concentration for USP5 was 300 nM Ub-AMC (Boston Biochem). The concentrations of the enzyme (USP5) in specificity assays was 300 pM. The concentrations were determined in order to perform specificity assays under initial velocities at fixed substrate concentration. Compounds were pre-incubated with enzymes for 30 minutes at 25°C. Reactions were initiated by addition of substrate to the plates containing the enzymes (+/- compounds) diluted in assay buffer. Reactions were incubated for 60 minutes at 37°C. Reactions were stopped by adding acetic acid (100 mM final). Readings were performed on a Pherastar Fluorescent Reader (BMG). λ Emission 380 nm; λ Excitation = 460 nm. Data (mean values +/- standard deviation) were analyzed as % of control (no compound) and plotted as percentage versus the Log of the compound concentration using GraphPad (Prism). Data were fitted to a sigmoidal model (variable slope).

Structure (SMILES) | IC50
CCOc1ccc(CCN2C(=O)C(O)=C(C(C)=O)C2c2ccc(Br)cc2)cc1 (stereo not shown) [Example 34, 4-acetyl-5-(4-bromo-phenyl)-3-hydroxy-1-[2-(4-ethoxy-phenyl)-ethyl]-1,5-dihydro-pyrrol-2-one] | > 200 µM
CC(=O)C1=C(O)C(=O)N(CCc2ccccc2)C1c1ccc2c(c1)OCO2 (stereo not shown) [Example 37, 4-acetyl-5-benzo[1,3]dioxol-5-yl-3-hydroxy-1-phenethyl-1,5-dihydro-pyrrol-2-one] | > 200 µM
CC(=O)C1=C(O)C(=O)N(CCc2ccccc2)C1c1ccc(Br)c(Br)c1 (stereo not shown) [Example 41, 4-acetyl-5-(3,4-dibromo-phenyl)-3-hydroxy-1-phenethyl-1,5-dihydro-pyrrol-2-one] | > 200 µM
CC(=O)C1=C(O)C(=O)N(CCc2ccccc2)C1c1cccnc1Cl (stereo not shown) [Example 42, 4-acetyl-5-(2-chloro-pyridin-3-yl)-3-hydroxy-1-phenethyl-1,5-dihydro-pyrrol-2-one] | > 200 µM
CC(=O)C1=C(O)C(=O)N(CCc2ccc(Br)cc2)C1c1ccc(Cl)cc1 (stereo not shown) [Example 45, 4-Acetyl-5-(4-chlorophenyl)-1-[2-(4-bromophenyl)-ethyl]-3-hydroxy-1,5-dihydro-pyrrol-2-one] | > 200 µM
CC(=O)C1=C(O)C(=O)N(CCc2ccc(Cl)cc2)C1c1ccc(Cl)cc1 (stereo not shown) [Example 46, 4-Acetyl-5-(4-chlorophenyl)-1-[2-(4-chlorophenyl)-ethyl]-3-hydroxy-1,5-dihydro-pyrrol-2-one] | > 200 µM
CC(=O)C1=C(O)C(=O)N(CCc2ccc(Cl)cc2Cl)C1c1ccc(Br)cc1 (stereo not shown) [Example 47, 4-Acetyl-5-(4-bromophenyl)-1-[2-(2,4-dichlorophenyl)-ethyl]-3-hydroxy-1,5-dihydro-pyrrol-2-one] | > 200 µM

Further lines, results first:

IC50 | Structure (SMILES)
> 200 µM | CC(=O)C1=C(O)C(=O)N(CCc2ccc(Cl)cc2)C1c1ccc(Br)cc1 (stereo not shown) [Example 25, 4-acetyl-5-(4-bromo-phenyl)-1-[2-(4-chloro-phenyl)-ethyl]-3-hydroxy-1,5-dihydro-pyrrol-2-one]
> 200 µM | CC(=O)C1=C(O)C(=O)N(CCc2ccc(Br)cc2)C1c1ccc(Br)cc1 (stereo not shown) [Example 26, 4-acetyl-5-(4-bromo-phenyl)-1-[2-(4-bromo-phenyl)-ethyl]-3-hydroxy-1,5-dihydro-pyrrol-2-one]
> 200 µM | CC(=O)C1=C(O)C(=O)N(CCc2ccc(Cl)c(Cl)c2)C1c1ccc(Br)cc1 (stereo not shown) [Example 28, 4-acetyl-5-(4-bromo-phenyl)-1-[2-(3,4-dichloro-phenyl)-ethyl]-3-hydroxy-1,5-dihydro-pyrrol-2-one]
> 200 µM | COc1cccc(CCN2C(=O)C(O)=C(C(C)=O)C2c2ccc(Br)cc2)c1 (stereo not shown) [Example 30, 4-acetyl-5-(4-bromo-phenyl)-3-hydroxy-1-[2-(3-methoxyphenyl)-ethyl]-1,5-dihydro-pyrrol-2-one]
> 200 µM | COc1ccc(CCN2C(=O)C(O)=C(C(C)=O)C2c2ccc(Br)cc2)cc1 (stereo not shown) [Example 32, 4-acetyl-5-(4-bromo-phenyl)-3-hydroxy-1-[2-(4-methoxyphenyl)-ethyl]-1,5-dihydro-pyrrol-2-one]
> 200 µM | CC(=O)C1=C(O)C(=O)N(CCc2ccc(F)cc2)C1c1ccc(Br)cc1 (stereo not shown) [Example 33, 4-acetyl-5-(4-bromo-phenyl)-3-hydroxy-1-[2-(4-fluorophenyl)-ethyl]-1,5-dihydro-pyrrol-2-one]
